The structures appear in SMILES notation. Starred links: 1 amine or outer side, 2 acyl side, 3 side chain; linkers in the order of their positions; H or OH if unused. Positions of bridges follow the written chain, without caps; N, C: chain ends. Non-standard residues stand in square brackets, D forms with d. Residues, ends and D or L forms follow the SMILES beside them. Chains are numbered I, II in the order given. X2 = O=C(O)CNC(=O)c1cc(N[*:1])cc(N[*:2])c1; X1 = NC(=O)c1cc(N[*:1])cc(N[*:2])c1; Adipoyl = O=C(CCCCC(=O)[*:2])[*:1]; Glutaryl = O=C(CCCC(=O)[*:2])[*:1]; 3Abz = Nc1cccc(C(=O)O)c1; 4Abz = Nc1ccc(C(=O)O)cc1; 2Abz = Nc1ccccc1C(=O)O

Chain of human platelet-rich plasma (P08514 32-1039): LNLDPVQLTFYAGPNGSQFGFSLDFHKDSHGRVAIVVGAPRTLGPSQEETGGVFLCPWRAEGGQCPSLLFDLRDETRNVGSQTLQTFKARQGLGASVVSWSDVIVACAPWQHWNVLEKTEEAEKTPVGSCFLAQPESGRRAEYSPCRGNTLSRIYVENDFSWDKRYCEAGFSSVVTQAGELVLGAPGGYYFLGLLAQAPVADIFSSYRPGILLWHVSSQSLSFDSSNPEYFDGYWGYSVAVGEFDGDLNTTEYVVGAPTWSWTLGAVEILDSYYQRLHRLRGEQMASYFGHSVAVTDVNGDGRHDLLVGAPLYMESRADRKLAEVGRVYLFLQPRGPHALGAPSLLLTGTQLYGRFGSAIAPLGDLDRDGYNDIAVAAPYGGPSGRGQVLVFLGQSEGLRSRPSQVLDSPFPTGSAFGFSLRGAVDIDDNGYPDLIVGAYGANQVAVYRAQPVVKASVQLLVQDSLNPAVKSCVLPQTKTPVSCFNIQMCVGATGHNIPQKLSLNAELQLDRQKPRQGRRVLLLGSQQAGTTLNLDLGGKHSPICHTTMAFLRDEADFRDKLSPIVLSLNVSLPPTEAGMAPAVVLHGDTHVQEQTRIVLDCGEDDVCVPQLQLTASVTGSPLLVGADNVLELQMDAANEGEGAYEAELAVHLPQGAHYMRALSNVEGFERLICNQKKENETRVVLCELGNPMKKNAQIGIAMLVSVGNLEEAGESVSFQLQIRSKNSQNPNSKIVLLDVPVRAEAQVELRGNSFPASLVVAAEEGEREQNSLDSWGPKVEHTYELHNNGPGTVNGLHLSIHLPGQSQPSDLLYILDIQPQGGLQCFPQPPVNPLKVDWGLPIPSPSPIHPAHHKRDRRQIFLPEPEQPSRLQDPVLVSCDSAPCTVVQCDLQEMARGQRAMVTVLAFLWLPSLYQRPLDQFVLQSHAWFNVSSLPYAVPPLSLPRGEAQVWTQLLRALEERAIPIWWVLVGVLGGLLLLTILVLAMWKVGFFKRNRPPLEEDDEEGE
Chain of human platelet-rich plasma (P05106 27-788): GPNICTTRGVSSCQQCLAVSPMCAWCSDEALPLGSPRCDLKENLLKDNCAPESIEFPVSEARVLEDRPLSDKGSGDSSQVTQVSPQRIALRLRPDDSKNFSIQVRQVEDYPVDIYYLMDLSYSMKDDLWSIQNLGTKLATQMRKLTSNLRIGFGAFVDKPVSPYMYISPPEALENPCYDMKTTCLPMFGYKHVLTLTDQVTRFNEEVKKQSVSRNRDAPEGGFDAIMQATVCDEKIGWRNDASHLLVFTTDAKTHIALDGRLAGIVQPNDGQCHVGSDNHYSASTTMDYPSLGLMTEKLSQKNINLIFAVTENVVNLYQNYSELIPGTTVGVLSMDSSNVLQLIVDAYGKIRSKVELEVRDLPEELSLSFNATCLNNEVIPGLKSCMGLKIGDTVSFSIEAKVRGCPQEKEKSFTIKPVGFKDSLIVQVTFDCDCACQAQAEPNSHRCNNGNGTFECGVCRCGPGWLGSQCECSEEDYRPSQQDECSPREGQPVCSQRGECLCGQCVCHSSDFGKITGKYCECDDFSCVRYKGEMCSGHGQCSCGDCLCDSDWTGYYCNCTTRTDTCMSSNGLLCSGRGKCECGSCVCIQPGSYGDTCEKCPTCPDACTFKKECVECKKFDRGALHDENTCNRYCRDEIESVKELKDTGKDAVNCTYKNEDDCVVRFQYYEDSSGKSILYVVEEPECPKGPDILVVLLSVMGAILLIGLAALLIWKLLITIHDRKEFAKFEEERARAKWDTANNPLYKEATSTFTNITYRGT

This assay concerns the target human platelet-rich plasma (Homo sapiens, UniProt P05106+P08514). The experiment in a line: In vitro inhibition of ADP-induced aggregation of human platelet-rich plasma (Coller assay). The format is cell-based. The conditions noted are these: adjusted for fibrinogen concentration (ca. 30 times lower than Coller assay value; 0.1 mg/mL fibrinogen). Here is the method: 1. In vitro Inhibition of Aggregation of Human Platelet-Rich Plasma
Whole blood (10 ml) was collected from human volunteers and anticoagulated by addition of […] of 40% sodium citrate. Platelet-rich plasma (PRP) was prepared by low speed centrifugation (700 G for 3.5 min at 22° C.). The PRP was removed and the remaining blood was centrifuged at 2000 G for 10 min at 22 ° C. to obtain platelet poor plasma (PPP). The PRP was diluted with PPP to give a final platelet count of 300 000μL with a Coulter Acounter Model ZM (Coulter, Hialeah, Fla.). This diluted PRP (400μL) was placed in a siliconized glass cuvette equipped with a magnetic stirrer and stirred at 1200 rpm at 37° C. Various concentrations of the peptides (36μL) in TRIS buffer (0.01 M TRIS, 0.15 M NaCl, and 0.05% sodium azide, pH 7.4) was added and incubated for 3 rain before platelet aggregation was induced by addition of 54μL of 100μM ADP in HEPES buffer (0.01 M HEPES and 0.15 M NaCl, pH 7.5). The platelet aggregation was determined by a change in light transmission through the PRP on a Lumi Aggregometer 400rS (ChronoLog, Hayertown, PA). The ability of the peptides to inhibit platelet aggregation was evaluated and the IC50 was determined as the concentration of peptide required to produce 50% inhibition of the response to ADP in the presence of the TRIS buffer.
The assay system developed by Coller, which is used throughout the experiment, is different from conventional assay systems in certain aspects. First, the platelets used by Plow et al., Blood, 70, 110 (1987); and Garsky et al., Proc. Natl. Acad. Sci. U.S.A., 86, 4022 (1989) are gel-filtered to remove plasma proteins. Since the gel-filtration treatment may decrease the reactivity of the platelets, our assay avoids this step. The platelet count is adjusted by simply mixing PRP and PPP, which minimizes alterations of the platelets. Second, fibrinogen concentration in the Coller system is different from that of others. As shown in the experimental description of the assay, PRP was obtained from fresh blood and used immediately without further manipulation except for count adjustment. According to measurements obtained using this assay, such plasma contains ca. 3 mg of fibrinogen per 1 mL of plasma. On the other hand, fibrinogen concentration used in the Garsky and Plow assay system is 0.1 mg/mL. The concentration of fibrinogen affects the amount of RGD peptide required to inhibit platelet aggregation, with higher fibrinogen concentrations resulting in higher IC50 values. If there is a linear relationship between these two parameters, the IC50 values obtained from the Coller assay should be ca. 30 times larger than those obtained from the Plow et al. assay or the Garsky et al. assay. The adjusted IC50 values are presented in column 4 of Table showing the inhibitory activities of RGD peptides.
The following peptides were synthesized, and their amino acid contents were analyzed as described in procedures 3-7, above. In addition, their ability to inhibit aggregation of human platelet rich plasma was assessed as described in procedures 1 and 2, above. Their respective IC50 values, as well as their estimated IC50 adjusted to the values according the method of Plow et al., (vide supra) are listed in Table 1.
`N=C(N)NCCC[C@H](NC(=O)CCCC(=O)N[C@@H](CCCNC(=N)N)C(=O)NCC(=O)N[C@@H](CC(=O)O)C(=O)N[C@@H](Cc1ccccc1)C(=O)O)C(=O)NCC(=O)N[C@@H](CC(=O)O)C(=O)N[C@@H](Cc1ccccc1)C(=O)O` [Example 13, Pda (RGDF--OH)2] (I: RGDF-OH / II: RGDF-OH; linker I:N-II:N via Glutaryl): the “IC50 (M)* Estimated IC50 adjusted to the values by the method of Plow et al.” value (“IC50 (M)* Estimated IC50 adjusted” below) was 5e-07 M.
In the case of `N=C(N)NCCC[C@H](NC(=O)CN)C(=O)NCC(=O)N[C@@H](CC(=O)O)C(=O)N[C@@H](Cc1ccccc1)C(=O)NCC(=O)Nc1ccc(C(=O)NCC(=O)N[C@@H](CCCNC(=N)N)C(=O)NCC(=O)N[C@@H](CC(=O)O)C(=O)N[C@@H](Cc2ccccc2)C(N)=O)cc1` [Example 24, GRGDFG--(p)Abz--GRGDF--NH2] (H-GRGDFG[4Abz]GRGDF-NH2) it was 2.1e-06 M; in that of `CCCCCC(=O)N[C@@H](CCCNC(=N)N)C(=O)NCC(=O)N[C@@H](CC(=O)O)C(=O)N[C@@H](Cc1ccccc1)C(=O)NCCCC[C@H](NC(=O)[C@H](Cc1ccccc1)NC(=O)[C@H](CC(=O)O)NC(=O)CNC(=O)[C@H](CCCNC(=N)N)NC(=O)CCCCC)C(N)=O` [Example 8, (HexRGDF)2 Lys--NH2], 7.6e-08 M; in that of `N=C(N)NCCC[C@H](NC(=O)CN)C(=O)NCC(=O)N[C@@H](CC(=O)O)C(=O)N[C@@H](Cc1ccccc1)C(=O)NCCCC[C@H](NC(=O)[C@H](Cc1ccccc1)NC(=O)[C@H](CC(=O)O)NC(=O)CNC(=O)[C@H](CCCNC(=N)N)NC(=O)CN)C(=O)NCC(=O)N[C@@H](CCCNC(=N)N)C(=O)NCC(=O)N[C@@H](CC(=O)O)C(=O)N[C@@H](Cc1ccccc1)C(N)=O` [Example 17, (GRGDF)2 Lys--GRGDF--NH2], 1.7e-06 M.
In the case of `N=C(N)NCCC[C@H](N)C(=O)NCC(=O)N[C@@H](CC(=O)O)C(=O)N[C@@H](Cc1ccccc1)C(=O)N1CCC[C@H]1C(=O)NCC(=O)Nc1cc(NC(=O)CNC(=O)[C@@H]2CCCN2C(=O)[C@H](Cc2ccccc2)NC(=O)[C@H](CC(=O)O)NC(=O)CNC(=O)[C@@H](N)CCCNC(=N)N)cc(C(N)=O)c1` [Example 2, (RGDFPG)2 Dab--NH2] (I: H-RGDFPG / II: H-RGDFPG; linker I:C-II:C via X1; N-terminus assumed) it was 4.2e-07 M; in that of `CC(C)[C@H](NC(=O)[C@H](CC(=O)O)NC(=O)CNC(=O)[C@H](CCCNC(=N)N)NC(=O)CN)C(=O)NCC(=O)Nc1cccc(C(=O)NCC(=O)N[C@@H](CCCNC(=N)N)C(=O)NCC(=O)N[C@@H](CC(=O)O)C(=O)N[C@@H](Cc2ccccc2)C(N)=O)c1` [Example 29, GRGDVG--(m)Abz--GRGDF--NH2] (H-GRGDVG[3Abz]GRGDF-NH2), 1.5e-06 M.
For `N=C(N)NCCC[C@H](NC(=O)CN)C(=O)NCC(=O)N[C@@H](CC(=O)O)C(=O)N[C@@H](Cc1ccccc1)C(=O)NCC(=O)Nc1ccccc1C(=O)NCC(=O)N[C@@H](CCCNC(=N)N)C(=O)NCC(=O)N[C@@H](CC(=O)O)C(=O)N[C@@H](Cc1ccccc1)C(N)=O` [Example 22, GRGDFG-(o)Abz--GRGDF--NH2] (H-GRGDFG[2Abz]GRGDF-NH2), the “IC50 (M)* Estimated IC50 adjusted” value was 3.1e-06 M.
As for `N=C(N)NCCC[C@H](NC(=O)CN)C(=O)NCC(=O)N[C@@H](CC(=O)O)C(=O)N[C@@H](Cc1ccccc1)C(=O)NCCC[C@H](NC(=O)[C@H](Cc1ccccc1)NC(=O)[C@H](CC(=O)O)NC(=O)CNC(=O)[C@H](CCCNC(=N)N)NC(=O)CN)C(N)=O` [Example 5, (GRGDF)2 Orn--NH2], the “IC50 (M)* Estimated IC50 adjusted” value is 4.4e-06 M.
In the case of `N=C(N)NCCC[C@H](N)C(=O)NCC(=O)N[C@@H](CC(=O)O)C(=O)N[C@@H](Cc1ccccc1)C(=O)NCCCC[C@H](NC(=O)[C@H](Cc1ccccc1)NC(=O)[C@H](CC(=O)O)NC(=O)CNC(=O)[C@@H](N)CCCNC(=N)N)C(N)=O` [Example 3, (RGDF)2 Lys--NH2] it was 1.2e-06 M.
Turning to `N=C(N)NCCC[C@H](NC(=O)CN)C(=O)NCC(=O)N[C@@H](CC(=O)O)C(=O)N[C@@H](Cc1ccccc1)C(=O)NCC(=O)Nc1cc(NC(=O)CNC(=O)[C@H](Cc2ccccc2)NC(=O)[C@H](CC(=O)O)NC(=O)CNC(=O)[C@H](CCCNC(=N)N)NC(=O)CN)cc(C(=O)NCC(=O)N[C@@H](CCCNC(=N)N)C(=O)NCC(=O)N[C@@H](CC(=O)O)C(=O)N[C@@H](Cc2ccccc2)C(N)=O)c1` [Example 15, (GRGDFG)2 Dab--GRGDF--NH2], the “IC50 (M)* Estimated IC50 adjusted” value was 1.1e-06 M.
Take `N=C(N)NCCC[C@H](NC(=O)CN)C(=O)NCC(=O)N[C@@H](CC(=O)O)C(=O)N[C@@H](CO)C(=O)NCC(=O)Nc1cccc(C(=O)NCC(=O)N[C@@H](CCCNC(=N)N)C(=O)NCC(=O)N[C@@H](CC(=O)O)C(=O)N[C@@H](Cc2ccccc2)C(N)=O)c1` [Example 26, GRGDSG--(m)Abz--GRGDF--NH2] (H-GRGDSG[3Abz]GRGDF-NH2): the “IC50 (M)* Estimated IC50 adjusted” value was 3e-06 M.
To `N=C(N)NCCC[C@H](NC(=O)C1CC(NC(=O)[C@H](Cc2ccccc2)NC(=O)[C@H](CC(=O)O)NC(=O)CNC(=O)[C@@H](N)CCCNC(=N)N)CC(NC(=O)[C@H](Cc2ccccc2)NC(=O)[C@H](CC(=O)O)NC(=O)CNC(=O)[C@@H](N)CCCNC(=N)N)C1)C(=O)NCC(=O)N[C@@H](CC(=O)O)C(=O)N[C@@H](Cc1ccccc1)C(=O)O` (some centres unmarked) [Example 16, (RGDF)2 Dac--RGDF--OH] belongs 7.2e-07 M.
To `N=C(N)NCCC[C@H](NC(=O)c1ccccc1)C(=O)NCC(=O)N[C@@H](CC(=O)O)C(=O)N[C@@H](Cc1ccccc1)C(=O)NCCCC[C@H](NC(=O)[C@H](Cc1ccccc1)NC(=O)[C@H](CC(=O)O)NC(=O)CNC(=O)[C@H](CCCNC(=N)N)NC(=O)c1ccccc1)C(N)=O` [Example 7, (BzRGDF)2 Lys--NH2] belongs 2.9e-07 M; to `N=C(N)NCCC[C@H](N)C(=O)NCC(=O)N[C@@H](CC(=O)O)C(=O)N[C@@H](Cc1ccccc1)C(=O)N1CCC[C@H]1C(=O)NCC(=O)Nc1cc(NC(=O)CNC(=O)[C@@H]2CCCN2C(=O)[C@H](Cc2ccccc2)NC(=O)[C@H](CC(=O)O)NC(=O)CNC(=O)[C@@H](N)CCCNC(=N)N)cc(C(=O)NCC(=O)O)c1` [Example 1, (RGDFPG)2 Dab--G--OH] (I: H-RGDFPG / II: H-RGDFPG; linker I:C-II:C via X2; N-terminus assumed), 6.7e-07 M; to `N=C(N)NCCC[C@H](NC(=O)CN)C(=O)NCC(=O)N[C@@H](CC(=O)O)C(=O)N[C@@H](CO)C(=O)NCC(=O)Nc1ccc(C(=O)NCC(=O)N[C@@H](CCCNC(=N)N)C(=O)NCC(=O)N[C@@H](CC(=O)O)C(=O)N[C@@H](Cc2ccccc2)C(N)=O)cc1` [Example 27, GRGDSG-(p)Abz--GRGDF--NH2] (H-GRGDSG[4Abz]GRGDF-NH2), 1.7e-06 M.
Take `N=C(N)NCCC[C@H](NC(=O)CCCCC(=O)N[C@@H](CCCNC(=N)N)C(=O)NCC(=O)N[C@@H](CC(=O)O)C(=O)N[C@@H](Cc1ccccc1)C(=O)O)C(=O)NCC(=O)N[C@@H](CC(=O)O)C(=O)N[C@@H](Cc1ccccc1)C(=O)O` [Example 14, Bda(RGDF--OH)2] (I: RGDF-OH / II: RGDF-OH; linker I:N-II:N via Adipoyl): the “IC50 (M)* Estimated IC50 adjusted” value was 4.7e-07 M.
In the case of `N=C(N)NCCC[C@H](NC(=O)CN)C(=O)NCC(=O)N[C@@H](CC(=O)O)C(=O)N[C@@H](Cc1ccccc1)C(=O)NCC(=O)Nc1ccc(C(=O)NCC(=O)N[C@@H](CCCNC(=N)N)C(=O)NCC(=O)N[C@@H](CC(=O)O)C(=O)N[C@@H](Cc2ccccc2)C(=O)O)cc1` [Example 21, GRGDFG--(p)Abz--GRGDF--OH] (H-GRGDFG[4Abz]GRGDF-OH) it was 1.2e-06 M.

These data come from patent US5338725A, “Anti-aggregatory agents for platelets” (The Research Foundation of the State University of New York, priority 1992, dated 1994).
